The source of these data is patent US20240293392A1, “INHIBITOR COMPOUNDS” (NeoPhore Limited, priority 2021, published 2024).

The target in experiment [1] is T1, recombinant N-terminal PMS2 (residues 1-365) (Homo sapiens, UniProt P54278).
T1 construct: recombinant N-terminal PMS2 (residues 1-365)
T1 sequence (P54278 1-365): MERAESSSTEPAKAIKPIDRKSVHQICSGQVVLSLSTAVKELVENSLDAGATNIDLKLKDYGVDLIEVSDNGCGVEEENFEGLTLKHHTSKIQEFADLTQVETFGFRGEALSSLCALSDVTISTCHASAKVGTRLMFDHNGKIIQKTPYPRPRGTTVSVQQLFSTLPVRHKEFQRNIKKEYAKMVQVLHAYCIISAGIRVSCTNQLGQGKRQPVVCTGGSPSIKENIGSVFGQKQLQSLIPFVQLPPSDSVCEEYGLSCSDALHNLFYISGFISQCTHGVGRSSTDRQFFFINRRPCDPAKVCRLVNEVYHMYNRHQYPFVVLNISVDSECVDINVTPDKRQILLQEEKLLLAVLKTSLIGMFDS
Nature of the experiment: Fluorescence Polarisation Assay for PMS2. The format is binding. The settings on record: fluorescence polarisation probe displacement; 10 nM N-terminal PMS2, 5 nM probe compound; read-out: PMS2 IC50. Put shortly: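 Competition fluorescence polarisation with 10 nM N-terminal PMS2 and 5 nM fluorescent probe (final), read after 1 h at room temperature following 30 min compound pre-incubation. Data normalised to no-inhibitor and no-enzyme controls; single-point screening or serial dilutions for potency.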
A general note: Polarisation of emitted light reports the rotation of a fluorescent probe.

The target in experiment [2] is T2, recombinant N-terminal MLH1 (residues 15-340) (Homo sapiens, UniProt P40692).
T2 construct: recombinant N-terminal MLH1 (residues 15-340)
T2 sequence (P40692 15-340): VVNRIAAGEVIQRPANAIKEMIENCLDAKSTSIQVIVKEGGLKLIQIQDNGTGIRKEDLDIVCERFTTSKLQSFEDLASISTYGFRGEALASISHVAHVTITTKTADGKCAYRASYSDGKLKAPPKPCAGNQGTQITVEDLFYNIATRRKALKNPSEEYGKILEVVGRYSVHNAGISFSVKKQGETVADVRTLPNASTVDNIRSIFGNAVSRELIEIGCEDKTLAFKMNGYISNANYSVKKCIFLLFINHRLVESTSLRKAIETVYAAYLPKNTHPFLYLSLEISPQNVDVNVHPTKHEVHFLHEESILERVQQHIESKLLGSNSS
As to the kind of experiment: Fluorescence Polarisation Assay for MLH1. The format is binding. The note with it: fluorescence polarisation probe displacement; 100 nM N-terminal MLH1, 5 nM probe compound. Put shortly: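 FP displacement assay: 100 nM MLH1 (residues 15-340) preincubated 30 min at room temperature with compound in 25 mM HEPES pH 7.5, 250 mM NaCl, 10 mM MgCl2, 0.01% Triton X-100, 5 mM DTT, then 5 nM rhodamine-labelled probe added and read immediately. Data normalised to no-inhibitor and no-enzyme controls.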

What is called IC50 is the point on the concentration scale where inhibition reaches its midpoint.

As to `CN(C)CCOc1cc2c(c(N[C@H]3CCOC3)c1)CN(C(=O)c1c(O)cc(O)cc1OCc1ccccc1)CC2` [Example 132, (S)-(2-(Benzyloxy)-4,6-dihydroxyphenyl)(6-(2-(dimethylamino)ethoxy)-8-((tetrahydrofuran-3-yl)amino)-3,4-dihydroisoquinolin-2(1H)-yl)methanone], the concentration for half-maximal inhibition (IC50) in experiment [1] and in experiment [2] was under 1000 nM throughout.
For `Cn1ccc(Nc2cccc3c2CN(C(=O)c2c(O)cc(O)cc2OCc2ccccc2)CC3)cc1=O` [Example 133, 4-((2-(2-(Benzyloxy)-4,6-dihydroxybenzoyl)-1,2,3,4-tetrahydro-isoquinolin-8-yl)amino)-1-methylpyridin-2(1H)-one], the IC50 in experiment [1] and in experiment [2] was 1000 to 10000 nM in each case.
As for `O=C(c1c(O)cc(O)cc1OCc1ccccc1)N1CCc2cccc(Nc3ccc(=O)[nH]c3)c2C1` [Example 134, 5-((2-(2-(Benzyloxy)-4,6-dihydroxybenzoyl)-1,2,3,4-tetrahydroisoquinolin-8-yl)amino)pyridin-2(1H)-one], the IC50 is over 10000 nM in experiment [1] and under 1000 nM in experiment [2].
Turning to `Cn1cc(Nc2cccc3c2CN(C(=O)c2c(O)cc(O)cc2OCc2ccccc2)CC3)ccc1=O` [Example 135, 5-((2-(2-(Benzyloxy)-4,6-dihydroxybenzoyl)-1,2,3,4-tetrahydroisoquinolin-8-yl)amino)-1-methylpyridin-2(1H)-one], the values for the IC50 in experiment [1] and in experiment [2] were 1000 to 10000 nM and under 1000 nM, respectively.
On the same counts, the results for `CN1C[C@H](Nc2cccc3c2CN(C(=O)c2c(O)cc(O)cc2OCc2ccccc2)C3)CC1=O` [Example 136, (R)-4-((2-(2-(Benzyloxy)-4,6-dihydroxybenzoyl)isoindolin-4-yl)amino)-1-methylpyrrolidin-2-one] are under 1000 nM and under 1000 nM.
In the same order, the values of `CN1C[C@@H](Nc2cccc3c2CN(C(=O)c2c(O)cc(O)cc2OCc2ccccc2)C3)CC1=O` [Example 137, (S)-4-((2-(2-(Benzyloxy)-4,6-dihydroxybenzoyl)isoindolin-4-yl)amino)-1-methylpyrrolidin-2-one] are under 1000 nM and under 1000 nM.
On the same counts, the results for `CN1CCC(Oc2cc3c(c(N[C@@H]4CCOC4)c2)CN(C(=O)c2c(O)cc(O)cc2OCc2ccccc2)CC3)CC1` [Example 138, (R)-(2-(Benzyloxy)-4,6-dihydroxyphenyl)(6-((1-methylpiperidin-4-yl)oxy)-8-((tetrahydrofuran-3-yl)amino)-3,4-dihydroisoquinolin-2(1H)-yl)methanone] are 1000 to 10000 nM and under 1000 nM.
Regarding `CN1CCC(Oc2cc3c(c(N[C@H]4CCOC4)c2)CN(C(=O)c2c(O)cc(O)cc2OCc2ccccc2)CC3)CC1` [Example 139, (S)-(2-(Benzyloxy)-4,6-dihydroxyphenyl)(6-((1-methylpiperidin-4-yl)oxy)-8-((tetrahydrofuran-3-yl)amino)-3,4-dihydroisoquinolin-2(1H)-yl)methanone], the concentration for half-maximal inhibition (IC50) in experiment [1] and in experiment [2] was under 1000 nM in each case.
For the molecule `O=C(c1c(O)cc(O)cc1OCC1CCCCC1)N1CCc2cccc(N[C@H]3CCOC3)c2C1` [Example 140, (S)-(2-(Cyclohexylmethoxy)-4,6-dihydroxyphenyl)(8-((tetrahydrofuran-3-yl)amino)-3,4-dihydroisoquinolin-2(1H)-yl)methanone], the IC50 was under 1000 nM in experiment [1] and 1000 to 10000 nM in experiment [2].
Consider `COCCOc1cc2c(c(N[C@@H]3CCOC3)c1)CN(C(=O)c1c(O)cc(O)cc1OCC1CC1)CC2` [Example 141, (R)-(2-(Cyclopropylmethoxy)-4,6-dihydroxyphenyl)(6-(2-methoxyethoxy)-8-((tetrahydrofuran-3-yl)amino)-3,4-dihydroisoquinolin-2(1H)-yl)methanone], for which the IC50 was over 10000 nM in experiment [1] and 1000 to 10000 nM in experiment [2].
Take `COCCOc1cc2c(c(N[C@@H]3CCOC3)c1)CN(C(=O)c1c(O)cc(O)cc1OCc1ccccn1)CC2` [Example 142, (R)-(2,4-Dihydroxy-6-(pyridin-2-ylmethoxy)phenyl)(6-(2-methoxyethoxy)-8-((tetrahydrofuran-3-yl)amino)-3,4-dihydroisoquinolin-2(1H)-yl)methanone]: the values for the IC50 in experiment [1] and in experiment [2] were over 10000 nM and under 1000 nM, respectively.
Turning to `CN(c1cccc2c1CN(C(=O)c1c(O)cc(O)cc1OCc1ccccc1)CC2)C1CCOC1` (stereo not shown) [Example 143, (2-(Benzyloxy)-4,6-dihydroxyphenyl)(8-(methyl(tetrahydrofuran-3-yl)amino)-3,4-dihydroisoquinolin-2(1H)-yl)methanone], the IC50 in experiment [1] and in experiment [2] was over 10000 nM each time.
Consider `O=C(c1c(O)cc(O)cc1OCc1ccccc1)N1Cc2ccc(CNC3COC3)cc2C1` [Example 144, 2-(Benzyloxy)-4,6-dihydroxyphenyl-(5-((oxetan-3-ylamino)methyl)isoindolin-2-yl)methanone], for which the IC50 in experiment [1] and in experiment [2] was under 1000 nM each time.
Turning to `O=C(c1c(O)cc(O)cc1OCc1ccccc1)N1Cc2ccc(CNC3CCOC3)cc2C1` (stereo not shown) [Example 145, (2-(Benzyloxy)-4,6-dihydroxyphenyl)(5-(((tetrahydrofuran-3-yl)amino)methyl)isoindolin-2-yl)methanone], the IC50 in experiment [1] and in experiment [2] was under 1000 nM in each case.
For the molecule `CC(=O)N1CC(Nc2cccc3c2CN(C(=O)c2c(O)cc(O)cc2OCc2ccccc2)CC3)C1` [Example 146, 1-(3-((2-(2-(Benzyloxy)-4,6-dihydroxybenzoyl)-1,2,3,4-tetrahydroisoquinolin-8-yl)amino)azetidin-1-yl)ethan-1-one], the IC50 in experiment [1] was 1000 to 10000 nM; in experiment [2], under 1000 nM.
`O=C(c1c(O)cc(O)cc1OCc1ccccc1)N1CCc2cccc(NC3CCS(=O)(=O)C3)c2C1` (stereo not shown) [Example 147, (2-(Benzyloxy)-4,6-dihydroxyphenyl)(8-((1,1-dioxidotetrahydrothiophen-3-yl)amino)-3,4-dihydroisoquinolin-2(1H)-yl)methanone]: the IC50 in experiment [1] is 1000 to 10000 nM; in experiment [2], under 1000 nM.
Turning to `COC1COCC1Nc1cccc2c1CN(C(=O)c1c(O)cc(O)cc1OCc1ccccc1)CC2` (stereo not shown) [Example 148, (2-(Benzyloxy)-4,6-dihydroxyphenyl)(8-((4-methoxytetrahydrofuran-3-yl)amino)-3,4-dihydroisoquinolin-2(1H)-yl)methanone], the IC50 in experiment [1] was over 10000 nM; in experiment [2], 1000 to 10000 nM.
For `COCOc1cc(OCOC)c(C(=O)N2CCc3cccc(N(C)C4CN(C(C)=O)C4)c3C2)c(OCc2ccccc2)c1` [Example 149, 1-(3-((2-(2-(Benzyloxy)-4,6-bis(methoxymethoxy)benzoyl)-1,2,3,4-tetrahydroisoquinolin-8-yl)(methyl)amino)azetidin-1-yl)ethan-1-one], the values for the IC50 in experiment [1] and in experiment [2] were over 10000 nM and 1000 to 10000 nM, respectively.
For `COCCCC(=O)N1CC[C@H](N(C)c2cccc3c2CN(C(=O)c2c(O)cc(O)cc2OCc2ccccc2)CC3)C1` [Example 150, (S)-1-(3-((2-(2-(Benzyloxy)-4,6-dihydroxybenzoyl)-1,2,3,4-tetrahydroisoquinolin-8-yl) (methyl)amino)pyrrolidin-1-yl)-4-methoxybutan-1-one], the 50% inhibitory concentration (IC50) in experiment [1] is over 10000 nM; in experiment [2], 1000 to 10000 nM.
Turning to `COCCCC(=O)N1CC[C@H](Nc2cccc3c2CN(C(=O)c2c(O)cc(O)cc2OCc2ccccc2)CC3)C1` [Example 151, (S)-1-(3-((2-(2-(Benzyloxy)-4,6-dihydroxybenzoyl)-1,2,3,4-tetrahydroisoquinolin-8-yl)amino)pyrrolidin-1-yl)-4-methoxybutan-1-one], the IC50 in experiment [1] is over 10000 nM; in experiment [2], under 1000 nM.
